Test system: P388
Assay: Cytotoxicity against mouse P388 cells assessed as cell viability after 92 hrs by XTT assay
Format: functional, cell-based
Settings: P388, 92 h

Row | SMILES | IC50
1 | CC[C@H](C)[C@H](NC(=O)[C@@H](CC(=O)NC)NC(=O)CNC(=O)[C@H](NC(=O)[C@@H](NC(=O)[C@@H](CC(=O)NC)NC(=O)[C@@H](NC(=O)[C@@H](CC(=O)NC)NC(=O)CNC(=O)CNC(=O)[C@H](C)NC(=O)[C@H](NC(=O)[C@H](CCC(=O)NC)NC(=O)[C@@H](CC(=O)NC)NC(=O)[C@@H](NC(=O)CNC(=O)[C@H](C)NC(=O)CNC(=O)[C@@H](NC(=O)[C@@H](CC(=O)NC)NC(=O)[C@H](C)N)C(C)(C)O)C(C)(C)C)C(C)(C)O)[C@@H](C)CC)C(C)(C)C)C(C)(C)O)C(=O)N[C@H](CC(=O)NC)C(=O)N[C@H](C(=O)N[C@H](CC(=O)NC)C(=O)N[C@@H](C)C(=O)N[C@H](CC(=O)NC)C(=O)N[C@H](C(=O)N[C@H](CO)C(=O)N[C@H](C(=O)N[C@H](CC(N)=O)C(=O)N[C@@H](Cc1cn(CCNS(=O)(=O)c2cccc3c(N(C)C)cccc23)nn1)C(=O)N[C@H](CC(N)=O)C(=O)N[C@@H](CCC(N)=O)C(=O)N[C@@H](C(=O)N[C@H](C(=O)O)[C@@H](C)O)[C@H](C)O)C(C)C)C(C)C)C(C)C | 100 nM
2 | CC[C@H](C)[C@H](NC(=O)[C@@H](CC(=O)NC)NC(=O)CNC(=O)[C@H](NC(=O)[C@@H](NC(=O)[C@@H](CC(=O)NC)NC(=O)[C@@H](NC(=O)[C@@H](CC(=O)NC)NC(=O)CNC(=O)CNC(=O)[C@H](C)NC(=O)[C@H](NC(=O)[C@H](CCC(=O)NC)NC(=O)[C@@H](CC(=O)NC)NC(=O)[C@@H](NC(=O)CNC(=O)[C@H](C)NC(=O)CNC(=O)[C@@H](NC(=O)[C@@H](CC(=O)NC)NC(=O)[C@H](C)NC(=O)[C@H](N)C(C)(C)C)C(C)(C)O)C(C)(C)C)C(C)(C)O)[C@@H](C)CC)C(C)(C)C)C(C)(C)O)C(=O)N[C@H](CC(=O)NC)C(=O)N[C@H](C(=O)N[C@H](CC(=O)NC)C(=O)N[C@@H](C)C(=O)N[C@H](CC(=O)NC)C(=O)N[C@H](C(=O)N[C@H](CO)C(=O)N[C@H](C(=O)N[C@H](CC(N)=O)C(=O)N[C@@H](Cc1cn(CCNS(=O)(=O)c2cccc3c(N(C)C)cccc23)nn1)C(=O)N[C@H](CC(N)=O)C(=O)N[C@@H](CCC(N)=O)C(=O)N[C@@H](C(=O)N[C@H](C(=O)O)[C@@H](C)O)[C@H](C)O)C(C)C)C(C)C)C(C)C | 81 nM
3 | CC[C@H](C)[C@H](NC(=O)[C@@H](CC(=O)NC)NC(=O)CNC(=O)[C@H](NC(=O)[C@@H](NC(=O)[C@@H](CC(=O)NC)NC(=O)[C@@H](NC(=O)[C@@H](CC(=O)NC)NC(=O)CNC(=O)CNC(=O)[C@H](C)NC(=O)[C@H](NC(=O)[C@H](CCC(=O)NC)NC(=O)[C@@H](CC(=O)NC)NC(=O)[C@@H](NC(=O)CNC(=O)[C@H](C)NC(=O)CNC(=O)[C@@H](NC(=O)[C@@H](CC(=O)NC)NC(=O)[C@H](C)NC(=O)[C@H](NC(=O)[C@H](C)NC(=O)CN)C(C)(C)C)C(C)(C)O)C(C)(C)C)C(C)(C)O)[C@@H](C)CC)C(C)(C)C)C(C)(C)O)C(=O)N[C@H](CC(=O)NC)C(=O)N[C@H](C(=O)N[C@H](CC(=O)NC)C(=O)N[C@@H](C)C(=O)N[C@H](CC(=O)NC)C(=O)N[C@H](C(=O)N[C@H](CO)C(=O)N[C@H](C(=O)N[C@H](CC(N)=O)C(=O)N[C@@H](Cc1cn(CCNS(=O)(=O)c2cccc3c(N(C)C)cccc23)nn1)C(=O)N[C@H](CC(N)=O)C(=O)N[C@@H](CCC(N)=O)C(=O)N[C@@H](C(=O)N[C@H](C(=O)O)[C@@H](C)O)[C@H](C)O)C(C)C)C(C)C)C(C)C | > 420 nM
4 | CC[C@H](C)[C@H](NC(=O)[C@@H](CC(=O)NC)NC(=O)CNC(=O)[C@H](NC(=O)[C@@H](NC(=O)[C@@H](CC(=O)NC)NC(=O)[C@@H](NC(=O)[C@@H](CC(=O)NC)NC(=O)CNC(=O)CNC(=O)[C@H](C)NC(=O)[C@H](NC(=O)[C@H](CCC(=O)NC)NC(=O)[C@@H](CC(=O)NC)NC(=O)[C@@H](NC(=O)CNC(=O)[C@H](C)NC(=O)CNC(=O)[C@@H](NC(=O)[C@@H](CC(=O)NC)NC(=O)[C@H](C)NC(=O)[C@H](NC(=O)[C@H](C)NC(=O)CNC(=O)[C@H](C)N)C(C)(C)C)C(C)(C)O)C(C)(C)C)C(C)(C)O)[C@@H](C)CC)C(C)(C)C)C(C)(C)O)C(=O)N[C@H](CC(=O)NC)C(=O)N[C@H](C(=O)N[C@H](CC(=O)NC)C(=O)N[C@@H](C)C(=O)N[C@H](CC(=O)NC)C(=O)N[C@H](C(=O)N[C@H](CO)C(=O)N[C@H](C(=O)N[C@H](CC(N)=O)C(=O)N[C@@H](Cc1cn(CCNS(=O)(=O)c2cccc3c(N(C)C)cccc23)nn1)C(=O)N[C@H](CC(N)=O)C(=O)N[C@@H](CCC(N)=O)C(=O)N[C@@H](C(=O)N[C@H](C(=O)O)[C@@H](C)O)[C@H](C)O)C(C)C)C(C)C)C(C)C | > 420 nM
5 | CC[C@H](C)[C@H](NC(=O)[C@@H](CC(=O)NC)NC(=O)CNC(=O)[C@H](NC(=O)[C@@H](NC(=O)[C@@H](CC(=O)NC)NC(=O)[C@@H](NC(=O)[C@@H](CC(=O)NC)NC(=O)CNC(=O)CNC(=O)[C@H](C)NC(=O)[C@H](NC(=O)[C@@H](N)CCC(=O)NC)C(C)(C)O)[C@@H](C)CC)C(C)(C)C)C(C)(C)O)C(=O)N[C@H](CC(=O)NC)C(=O)N[C@H](C(=O)N[C@H](CC(=O)NC)C(=O)N[C@@H](C)C(=O)N[C@H](CC(=O)NC)C(=O)N[C@H](C(=O)N[C@H](CO)C(=O)N[C@H](C(=O)N[C@H](CC(N)=O)C(=O)N[C@@H](Cc1cn(CCNS(=O)(=O)c2cccc3c(N(C)C)cccc23)nn1)C(=O)N[C@H](CC(N)=O)C(=O)N[C@@H](CCC(N)=O)C(=O)N[C@@H](C(=O)N[C@H](C(=O)O)[C@@H](C)O)[C@H](C)O)C(C)C)C(C)C)C(C)C | > 420 nM
6 | CC[C@H](C)[C@H](NC(=O)[C@@H](CC(=O)NC)NC(=O)CNC(=O)[C@H](NC(=O)[C@@H](NC(=O)[C@@H](CC(=O)NC)NC(=O)[C@@H](NC(=O)[C@@H](CC(=O)NC)NC(=O)CNC(=O)CNC(=O)[C@H](C)NC(=O)[C@H](NC(=O)[C@H](CCC(=O)NC)NC(=O)[C@@H](CC(=O)NC)NC(=O)[C@@H](NC(=O)CN)C(C)(C)C)C(C)(C)O)[C@@H](C)CC)C(C)(C)C)C(C)(C)O)C(=O)N[C@H](CC(=O)NC)C(=O)N[C@H](C(=O)N[C@H](CC(=O)NC)C(=O)N[C@@H](C)C(=O)N[C@H](CC(=O)NC)C(=O)N[C@H](C(=O)N[C@H](CO)C(=O)N[C@H](C(=O)N[C@H](CC(N)=O)C(=O)N[C@@H](Cc1cn(CCNS(=O)(=O)c2cccc3c(N(C)C)cccc23)nn1)C(=O)N[C@H](CC(N)=O)C(=O)N[C@@H](CCC(N)=O)C(=O)N[C@@H](C(=O)N[C@H](C(=O)O)[C@@H](C)O)[C@H](C)O)C(C)C)C(C)C)C(C)C | > 410 nM
7 | CC[C@H](C)[C@H](NC(=O)[C@@H](CC(=O)NC)NC(=O)CNC(=O)[C@H](NC(=O)[C@@H](NC(=O)[C@@H](CC(=O)NC)NC(=O)[C@@H](NC(=O)[C@@H](CC(=O)NC)NC(=O)CNC(=O)CNC(=O)[C@H](C)NC(=O)[C@H](NC(=O)[C@H](CCC(=O)NC)NC(=O)[C@H](N)CC(=O)NC)C(C)(C)O)[C@@H](C)CC)C(C)(C)C)C(C)(C)O)C(=O)N[C@H](CC(=O)NC)C(=O)N[C@H](C(=O)N[C@H](CC(=O)NC)C(=O)N[C@@H](C)C(=O)N[C@H](CC(=O)NC)C(=O)N[C@H](C(=O)N[C@H](CO)C(=O)N[C@H](C(=O)N[C@H](CC(N)=O)C(=O)N[C@@H](Cc1cn(CCNS(=O)(=O)c2cccc3c(N(C)C)cccc23)nn1)C(=O)N[C@H](CC(N)=O)C(=O)N[C@@H](CCC(N)=O)C(=O)N[C@@H](C(=O)N[C@H](C(=O)O)[C@@H](C)O)[C@H](C)O)C(C)C)C(C)C)C(C)C | > 250 nM
8 | CC[C@H](C)[C@H](NC(=O)[C@@H](CC(=O)NC)NC(=O)CNC(=O)[C@H](NC(=O)[C@@H](NC(=O)[C@@H](CC(=O)NC)NC(=O)[C@@H](NC(=O)[C@@H](CC(=O)NC)NC(=O)CNC(=O)CNC(=O)[C@H](C)NC(=O)[C@H](NC(=O)[C@H](CCC(=O)NC)NC(=O)[C@@H](CC(=O)NC)NC(=O)[C@@H](N)C(C)(C)C)C(C)(C)O)[C@@H](C)CC)C(C)(C)C)C(C)(C)O)C(=O)N[C@H](CC(=O)NC)C(=O)N[C@H](C(=O)N[C@H](CC(=O)NC)C(=O)N[C@@H](C)C(=O)N[C@H](CC(=O)NC)C(=O)N[C@H](C(=O)N[C@H](CO)C(=O)N[C@H](C(=O)N[C@H](CC(N)=O)C(=O)N[C@@H](Cc1cn(CCNS(=O)(=O)c2cccc3c(N(C)C)cccc23)nn1)C(=O)N[C@H](CC(N)=O)C(=O)N[C@@H](CCC(N)=O)C(=O)N[C@@H](C(=O)N[C@H](C(=O)O)[C@@H](C)O)[C@H](C)O)C(C)C)C(C)C)C(C)C | 390 nM
9 | CC[C@H](C)[C@H](NC(=O)[C@@H](CC(=O)NC)NC(=O)CNC(=O)[C@H](NC(=O)[C@@H](NC(=O)[C@@H](CC(=O)NC)NC(=O)[C@@H](NC(=O)[C@@H](CC(=O)NC)NC(=O)CNC(=O)CNC(=O)[C@H](C)NC(=O)[C@H](NC(=O)[C@H](CCC(=O)NC)NC(=O)[C@@H](CC(=O)NC)NC(=O)[C@@H](NC(=O)CNC(=O)[C@H](C)N)C(C)(C)C)C(C)(C)O)[C@@H](C)CC)C(C)(C)C)C(C)(C)O)C(=O)N[C@H](CC(=O)NC)C(=O)N[C@H](C(=O)N[C@H](CC(=O)NC)C(=O)N[C@@H](C)C(=O)N[C@H](CC(=O)NC)C(=O)N[C@H](C(=O)N[C@H](CO)C(=O)N[C@H](C(=O)N[C@H](CC(N)=O)C(=O)N[C@@H](Cc1cn(CCNS(=O)(=O)c2cccc3c(N(C)C)cccc23)nn1)C(=O)N[C@H](CC(N)=O)C(=O)N[C@@H](CCC(N)=O)C(=O)N[C@@H](C(=O)N[C@H](C(=O)O)[C@@H](C)O)[C@H](C)O)C(C)C)C(C)C)C(C)C | 190 nM
10 | CC[C@H](C)[C@H](NC(=O)[C@@H](CC(=O)NC)NC(=O)CNC(=O)[C@H](NC(=O)[C@@H](NC(=O)[C@@H](CC(=O)NC)NC(=O)[C@@H](NC(=O)[C@@H](CC(=O)NC)NC(=O)CNC(=O)CNC(=O)[C@H](C)NC(=O)[C@H](NC(=O)[C@H](CCC(=O)NC)NC(=O)[C@@H](CC(=O)NC)NC(=O)[C@@H](NC(=O)CNC(=O)[C@H](C)NC(=O)CN)C(C)(C)C)C(C)(C)O)[C@@H](C)CC)C(C)(C)C)C(C)(C)O)C(=O)N[C@H](CC(=O)NC)C(=O)N[C@H](C(=O)N[C@H](CC(=O)NC)C(=O)N[C@@H](C)C(=O)N[C@H](CC(=O)NC)C(=O)N[C@H](C(=O)N[C@H](CO)C(=O)N[C@H](C(=O)N[C@H](CC(N)=O)C(=O)N[C@@H](Cc1cn(CCNS(=O)(=O)c2cccc3c(N(C)C)cccc23)nn1)C(=O)N[C@H](CC(N)=O)C(=O)N[C@@H](CCC(N)=O)C(=O)N[C@@H](C(=O)N[C@H](C(=O)O)[C@@H](C)O)[C@H](C)O)C(C)C)C(C)C)C(C)C | > 450 nM

Reference: ChEMBL document CHEMBL2321750, “Structural permutation of potent cytotoxin, polytheonamide B: discovery of cytotoxic Peptide with altered activity” (ACS Med Chem Lett, 2013)
